Results from patent publication US20230301895A1, “NAIL FORMULATIONS AND TREATMENT REGIMES” (NOVABIOTICS LIMITED, priority 2020, published 2023).
In brackets after ≈: the same amount, converted by molar mass. Where a SMILES comes first, the peptide text is derived from it. [ ]: non-standard residue; d: D form. The star is where a group is joined. Sta = CC(C)C[C@H](N)[C@@H](O)CC(=O)O; Isovaleryl = CC(C)CC(=O)*

Legend:
[1] = tested on: T. interdigitale NCPF0335; assay type: cell-based; settings: for effect of protease inhibitor alone on growth: 1 mM PMSF, 1 mg/L Pepstatin A, 10 µM E-64; for effect of protease inhibitor alone on growth / growth inhibition by protease inhibitor alone: 100 µM EDTA; for growth inhibition by protease inhibitor alone: RPMI-1640, 1 mg/L PMSF, 10 µM E64, 1 mg/L pepstatin
Method: (§1) Antifungal susceptibility testing to determine the MIC was conducted by the broth microdilution procedure for filamentous fungi (M38-A2) (Clinical & Laboratory Standards Institute (CLSI). 2008. Reference Method for Broth Dilution Antifungal Susceptibility Testing of Filamentous Fungi; Approved Standard - Second Edition (M38-A2). Clinical and Laboratory Standards Institute, Wayne, PA). This experiment was carried out in triplicate with triplicate samples in each experiment. The proteolytic stability of NP213 was assessed by determining NP213 MIC as described above versus T. rubrum NCPF0118 and T. interdigitale NCPF0335 in the presence of the following protease inhibitors; serine proteases (1 mM phenylmethylsulfonyl fluoride; PMSF), metalloproteases (100 µM ethylenediaminetetraacetic acid; EDTA), aspartyl proteases (1 mg/L Pepstatin A) and cysteine proteases (10 µM trans-epoxysuccinyl-L-leucylamido(4-guanidino)butane; E-64).
(§2) T. rubrum NCPF0118 and T. interdigitale NCPF0335 in RPMI-1640 liquid medium. MIC was determined by the broth microdilution procedure (CLSI, 2008). Metalloprotease inhibitor -100 µM EDTA; Serine protease inhibitor - 1 mg/L PMSF; Cysteine protease inhibitor -10 µM E64; Aspartyl protease inhibitor - 1 mg/L pepstatin.
(§3) Antifungal susceptibility testing was conducted by the broth microdilution procedure as described in CLSI Approved Standard M38-A2. All peptides were dissolved in sterile deionised water (40 mg/ml) and stored at -20° C. until required. All experiments were carried out in triplicate, with triplicate samples in each experiment.

T. rubrum NCPF0118 [2] = assay type: cell-based, Trichophyton rubrum; settings: for effect of protease inhibitor alone on growth: 1 mM PMSF, 1 mg/L Pepstatin A, 10 µM E-64; for effect of protease inhibitor alone on growth / growth inhibition by protease inhibitor alone: 100 µM EDTA; for growth inhibition by protease inhibitor alone: RPMI-1640, 1 mg/L PMSF, 10 µM E64, 1 mg/L pepstatin
Method: as §1, §2, §3

[3] = tested on: T. rubrum NCPF0118 and T. interdigitale NCPF0335; test: Antifungal susceptibility testing, summary statements for both dermatophytes; assay type: cell-based; settings: Example 4 summary
Method: as §1
Antifungal susceptibility testing was carried out as described above, but with the following modifications. RPMI-1640 medium was substituted for 0.5% (w/v) powdered nail, skin keratin or sheep’s wool keratin suspensions in 10 mM sodium phosphate buffer, pH 7.0 containing 0.0025% (w/v) AlamarBlue™ (ThermoFisher Scientific, UK). […]

T. rubrum NCPF0118 [4] = test: Metabolic activity (Alamar blue) of T. rubrum exposed to NP213 in dried nail lacquers or PEG4000 formulation; assay type: cell-based, Trichophyton rubrum
Method: NP213 (5 and 10% w/v) was formulated in 50% (v/v) PEG4000. Alternatively, NP213 was dissolved/suspended in the lacquer formulations at concentrations of 0, 5 or 10 % (w/v). 10 µl of each lacquer was applied to the base of a well in a flat-bottomed 96-well plate in triplicate wells and allowed to dry for 90 min. An inoculum of 3 × 10^3 cfu T. rubrum NCPF0118 was prepared in 1 × RPMI-1640 liquid medium and 200 µl was added to all wells containing lacquers and control wells containing no lacquer (growth control). An additional 3 wells per plate contained 200 µl RPMI-1640 liquid medium without inoculum to serve as sterility controls. To each well was added a minimal volume of Alamar blue solution (0.0025% (w/v) final concentration). Antifungal activity was determined based on changes in metabolic activity (due to metabolism of the cell viability indicator Alamar blue). Metabolic activity was monitored by fluorescence (Ex 530 nm/Em 590 nm) every 24 h for up to 168 h.

[5] = tested on: Trichophyton rubrum NCPF0118; test: Experimental model of dermatophyte nail infection on human nail fragments, colony counts; assay type: cell-based; settings: daily application to dorsal side of infected nail; FIG. 15
Method: An experimental model of dermatophyte nail infection was optimized to simulate onychomycosis under laboratory conditions and to test the antifungal efficacy of NP213. As an inert support and to provide a moist atmosphere, sterile water agar plates were prepared in 90-mm Petri dishes (1.5% (w/v) agar in sterile-deionised water). Petri dishes were divided into three sections, and individual pieces of sterile silicone rubber tubing (1-cm diameter; 3-mm height) were placed in each section, allowing the investigation of three nail fragments per plate. This prevented direct contact between the nails and the agar surface or the lid of the Petri dish. Such a setup was necessary because agar contains components that can bind to cationic peptides, including NP213, inhibiting their diffusion and reducing activity. Silicon tubing is permeable to oxygen and carbon dioxide, and its use ensured oxygen access to support fungal growth. Its diameter was sufficiently small to stably support the nail fragments. Uninfected human nails (sourced under ethical approval) were cleaned of all residual skin and debris before cutting to size (approximately four fragments were obtained from an adult great toenail), and their surface area and thickness were determined using a micrometer. […] Samples were plated on potato dextrose agar and incubated at 30° C. for 14 days, and the colonies were counted.

| SMILES | effect of protease inhibitor alone on growth [1] | growth inhibition by protease inhibitor alone [1] | effect of protease inhibitor alone on growth (T. rubrum NCPF0118 [2]) | growth inhibition by protease inhibitor alone (T. rubrum NCPF0118 [2]) | MIC (mg/L) T. interdigitale NPCF0335 [1] [mg/L] | MIC (mg/L) T.rubrum NCPF0118 (T. rubrum NCPF0118 [2]) [mg/L] | other results |
| --- | --- | --- | --- | --- | --- | --- | --- |
| CC(C)C[C@H](NC(=O)[C@H]1O[C@@H]1C(=O)O)C(=O)NCCCCN=C(N)N (relative stereo) [Peptide E-64, trans-epoxysuccinyl-L-leucylamido(4-guanidino)butane] | no effect on the growth | did not inhibit growth | no effect on the growth | did not inhibit growth | – | – | – |
| CC(C)C[C@H](NC(=O)[C@@H](O)[C@H](N)Cc1ccccc1)C(=O)O [Bestatin] | – | – | – | – | – | – | effect of metalloprotease inhibitor on the anti-fungal effect of the cyclic peptide [3]: enhanced |
| O=C(O)CN(CCN(CC(=O)O)CC(=O)O)CC(=O)O [EDTA, ethylenediaminetetraacetic acid] | no effect on the growth | did not inhibit growth | no effect on the growth | did not inhibit growth | – | – | effect of metalloprotease inhibitor on the anti-fungal effect of the cyclic peptide [3]: enhanced |
| N=C(N)NCCC[C@@H]1NC(=O)[C@H](CCCNC(=N)N)NC(=O)[C@H](CCCNC(=N)N)NC(=O)[C@H](CCCNC(=N)N)NC(=O)[C@H](CCCNC(=N)N)NC1=O [NP201, cyclic-5R] (cyclo(RRRRR)) | – | – | – | – | 1000 (≈ 1280 µM) | 500 (≈ 640 µM) | – |
| N=C(N)NCCC[C@@H]1NC(=O)[C@H](CCCNC(=N)N)NC(=O)[C@H](CCCNC(=N)N)NC(=O)[C@H](CCCNC(=N)N)NC(=O)[C@H](CCCNC(=N)N)NC(=O)[C@H](CCCNC(=N)N)NC(=O)[C@H](CCCNC(=N)N)NC(=O)[C@H](CCCNC(=N)N)NC(=O)[C@H](CCCNC(=N)N)NC(=O)[C@H](CCCNC(=N)N)NC(=O)[C@H](CCCNC(=N)N)NC1=O [NP202, cyclic 11 R] | – | – | – | – | 15.6 (≈ 9.08 µM) | 250 (≈ 146 µM) | – |
| N=C(N)NCCC[C@@H]1NC(=O)[C@H](CCCNC(=N)N)NC(=O)[C@H](CCCNC(=N)N)NC(=O)[C@H](CCCNC(=N)N)NC(=O)[C@H](CCCNC(=N)N)NC(=O)[C@H](CCCNC(=N)N)NC(=O)[C@H](CCCNC(=N)N)NC(=O)[C@H](CCCNC(=N)N)NC(=O)[C@H](CCCNC(=N)N)NC(=O)[C@H](CCCNC(=N)N)NC(=O)[C@H](CCCNC(=N)N)NC(=O)[C@H](CCCNC(=N)N)NC(=O)[C@H](CCCNC(=N)N)NC(=O)[C@H](CCCNC(=N)N)NC(=O)[C@H](CCCNC(=N)N)NC1=O [NP203, cyclic 15R] | – | – | – | – | 3.9 (≈ 1.66 µM) | 62.5 (≈ 26.7 µM) | – |
| N=C(N)NCCC[C@@H]1NC(=O)[C@H](CCCNC(=N)N)NC(=O)[C@H](CCCNC(=N)N)NC(=O)[C@H](CCCNC(=N)N)NC(=O)[C@H](CCCNC(=N)N)NC(=O)[C@H](CCCNC(=N)N)NC(=O)[C@H](CCCNC(=N)N)NC1=O [NP213, cyclic R-R-R-R-R-R-R] | – | – | – | – | 500 (≈ 457 µM) | 1000 (≈ 915 µM) | MIC (mg/L) T.interdigitale NCPF0335 [1]: 500 mg/L (≈ 457 µM); antifungal activity in Roehm lacquer 1 compared to NP213 in 50% (v/v) PEG4000 (T. rubrum NCPF0118 [4]; 5% and 10% (w/v) NP213, metabolic activity up to 168 h, FIG. 1): lower; antifungal activity in Roehm lacquer 2 compared to NP213 in 50% (v/v) PEG4000 (T. rubrum NCPF0118 [4]; 5% and 10% (w/v) NP213, metabolic activity up to 168 h, FIG. 2): lower; antifungal activity in Roehm lacquer 3 compared to NP213 in 50% (v/v) PEG4000 (T. rubrum NCPF0118 [4]; 5% and 10% (w/v) NP213, metabolic activity up to 168 h, FIG. 3): lower; antifungal activity in Roehm lacquer 4 compared to NP213 in 50% (v/v) PEG4000 (T. rubrum NCPF0118 [4]; 5% and 10% (w/v) NP213, metabolic activity up to 168 h, FIG. 4): lower; antifungal activity in Roehm lacquer 5 compared to NP213 in 50% (v/v) PEG4000 (T. rubrum NCPF0118 [4]; 5% and 10% (w/v) NP213, metabolic activity up to 168 h, FIG. 5): lower; antifungal activity in Anacor lacquer C compared to NP213 in 50% (v/v) PEG4000 (T. rubrum NCPF0118 [4]; 5% and 10% (w/v) NP213, metabolic activity up to 168 h, FIG. 6): lower; antifungal activity in 2d lacquer compared to NP213 in 50% (v/v) PEG4000 (T. rubrum NCPF0118 [4]; 10% (w/v) NP213 in 2d lacquer, metabolic activity up to 168 h, FIG. 7): lower; efficacy in the known nail lacquers (T. rubrum NCPF0118 [4]; lacquers manufactured by Anacor and Roehm): not effective; time from beginning treatment until antifungal effects are seen [5]: ≤ 11 days |
| O=S(=O)(F)Cc1ccccc1 [PMSF, phenylmethylsulfonyl fluoride] | no effect on the growth | did not inhibit growth | no effect on the growth | did not inhibit growth | – | – | – |
| CC(C)CC(=O)N[C@H](C(=O)N[C@H](C(=O)N[C@@H](CC(C)C)[C@@H](O)CC(=O)N[C@@H](C)C(=O)N[C@@H](CC(C)C)[C@@H](O)CC(=O)O)C(C)C)C(C)C [Pepstatin A] (Isovaleryl-VV[Sta]A[Sta]-OH) | no effect on the growth | did not inhibit growth | no effect on the growth | did not inhibit growth | – | – | – |
